Like-named read-outs stand apart in the source and are kept apart here. Blank lines part the entries; values can stand above or below the compound they belong to.
How the values were obtained:
[1] = non-transplant patients; cited from earlier work
[2] = in vivo; cited from earlier work
[3] = unmodified drug; cited from earlier work
CYP3a4 = biological target: T1, CYP3a4 (Homo sapiens, UniProt P08684); assay: Fluorescence-based CYP3a4 assay (Invitrogen VIVID probes), with or without recombinant human FKBP; assay type: in vitro ADME
T1 construct: purchased Invitrogen (Carlsbad, Calif.)
T1 sequence (P08684 whole entry): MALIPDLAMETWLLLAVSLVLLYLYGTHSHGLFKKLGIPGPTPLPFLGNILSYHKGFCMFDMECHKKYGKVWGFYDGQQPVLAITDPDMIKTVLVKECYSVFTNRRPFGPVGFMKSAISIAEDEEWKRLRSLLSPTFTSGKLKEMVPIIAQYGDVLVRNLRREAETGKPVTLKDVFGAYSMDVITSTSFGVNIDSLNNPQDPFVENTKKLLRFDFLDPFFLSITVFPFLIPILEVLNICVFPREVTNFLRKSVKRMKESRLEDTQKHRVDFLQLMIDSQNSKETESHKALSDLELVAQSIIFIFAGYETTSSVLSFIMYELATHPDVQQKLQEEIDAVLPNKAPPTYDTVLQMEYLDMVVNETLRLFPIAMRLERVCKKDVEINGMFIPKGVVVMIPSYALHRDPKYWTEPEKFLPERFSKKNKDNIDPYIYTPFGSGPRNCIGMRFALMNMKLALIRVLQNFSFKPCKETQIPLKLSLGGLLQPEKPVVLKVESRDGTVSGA
Source text: An amyloid ligand, curcumin, is known to be a good substrate for CYP3a4 (a common P450 enzyme). We investigated whether conjugates between curcumin and FK506 would also be substrates for the enzyme. To test this possibility, we utilized a well-known fluorescence-based CYP3a4 assay. This assay, marketed by Invitrogen (Carlsbad, Calif.), under the name VIVID probes, relies on cytochrome-mediated production of a fluorescent marker from a model substrate. When a compound, such as curcumin, binds to the P450, it displaces the substrate and reduces the rate of production of the fluorescent product. […] However, when we supplied a source of human FKBP (in this case, recombinant bacterially-expressed protein), we observed very different results as shown in FIG. 3. […] It is believed that FKBP protects the curcumin conjugates from degradation by sterically hindering CYP3a4 binding. In the presence of cellular FKBP sources, this effect would be predicted to be increased because the compartmentalization of the conjugate further reduces availability to P450 enzymes.

Compound: C=CC[C@@H]1/C=C(\C)C[C@H](C)C[C@H](OC)[C@H]2O[C@@](O)(C(=O)C(=O)N3CCCC[C@H]3C(=O)O[C@H](/C(C)=C/[C@@H]3CC[C@@H](O)[C@H](OC)C3)[C@H](C)[C@@H](O)CC1=O)[C@H](C)C[C@@H]2OC [FK506, FK506 (tacrolimus)]
half-life [1]: 21 h
distribution into protected cellular compartments (in the blood) [2]: 72-98%

Compound: CN(Cc1cnc2nc(N)nc(N)c2n1)c1ccc(C(=O)N[C@@H](CCC(=O)O)C(=O)O)cc1 [methotrexate]
half-life [3]: 6 h

protection from degradation by CYP3a4 (CYP3a4; in the presence of recombinant human FKBP): unable to protect
substrate for CYP3a4 (CYP3a4; without FKBP): good substrates
Compound: COc1cc(/C=C/C(=O)CC(=O)/C=C/c2ccc(O)c(OC)c2)ccc1O [curcumin]

— US20080306098A1, “Pharmacokinetics of protease inhibitors and other drugs” (priority 2006, published 2008)
